Square brackets hold non-standard residues; d marks the D form. Ends that are not written are not given here. pS = N[C@@H](COP(=O)(O)O)C(=O)O
How the values were obtained:
[1] = tested on: murine embryonic fibroblasts (MEFs) expressing Mfn1 and/or Mfn2; assay: Mitochondrial aspect ratio and polarization in MEFs infected with adenovirus expressing Mfn2 HR1 peptides; format: cell-based; conditions: adenoviral expression; for mitochondrial aspect ratio (length/width; an index of mitochondrial fusion): MOI 100, WT and Mfn2 null MEFs, vs Ad-Null/β-gal control; for mitochondrial aspect ratio (elongation/shortening) compared with adeno-HR1 or Mfn deletion: WT, Mfn1 KO, Mfn2 KO, Mfn1/Mfn2 DKO MEFs; for mitochondrial polarization status: WT MEFs, TMRE
Procedure: The effect of each of the peptides listed in Table 1 on mitochondrial function was tested in a cell culture system using murine embryonic fibroblasts (MEFs) as described in Example 4. Wild-type MEFs express both Mfn1 and Mfn2. Also used were MEFs in which the Mfn2 gene was knocked out (MEF Mfn2 KO). The details of the experiments are provided in Example 3. In these experiments, the MEFs were infected with adenovirus (AV) engineered to express one of the peptides or full-length Mfn2 as a control. Mitochondrial fusion activity was measured using confocal microscopy and quantitative analysis of the mitochondrial aspect ratio which is a measurement of mitochondria length/width and is an accepted index of mitochondrial fusion. […] As with all confocal microscopic images provided herein, treated cells were stained to allow quantitative assessment of mitochondrial aspect ratio and polarization using methods routine in the art. In Examples 4-8, MitoTracker Green is used to stain the mitochondria to allow measurement of mitochondrial length and width to determine the aspect ratio. Red TMRE is used to measure mitochondrial polarization (membrane potential). Blue Hoechst stains nuclei.
Empty adenovirus (Ad-CMV-Null; #1300) and adenoviri expressing β-Galactosidase (Ad-CMV-b-Gal; #1080) or Cre recombinase (Ad-CMV-iCre; #1045) were from Vector Biolabs. Adenoviral expression vectors for hMfn2 HR1 and the minipeptides and Gly or Pro mutants were generated and amplified using standard methods. Adenoviral vectors were added to MEFs at 50% confluence at an MOI of 100.
(§1) MEFs or neurons were grown on chamber slides and infected with recombinant adenoviri for 48-72 hours unless otherwise indicated. MEFs were stained with MitoTracker Green (200 nM, Invitrogen M7514) and Blue Hoechst (10 mg/ml, Invitrogen H3570), with or without tetramethylrhodamine ethyl ester (TMRE; 200 nM, Invitrogen T-669). Neuronal mitochondria were labeled with adenoviral-expressed mitoGFP plus TMRE, or with adeno-mitoDsRed for time-lapse studies. Cover slips were loaded onto a chamber (Warner instrument, RC-40LP) in modified Krebs-Henseleit buffer (138 mM NaCl, 3.7 mM KCl, 1.2 mM KH2PO4, 15 mM Glucose, 20 mM HEPES and 1 mM CaCl2) at room temperature and visualized on a Nikon Ti Confocal microscope equipped with a 60×1.3 NA oil immersion objective. For mitophagy studies MEFs were stained with MitoTracker Green and infected with adeno-mcherry Parkin or stained with LysoTracker Deep Red (50 nM, Invitrogen L-7528); carbonylcyanide p-trifluoromethoxyphenylhydrazone (FCCP, 10 μM for 1 hour) was applied as a positive control. Mitochondrial fusion was measured at 2 and 6 hours after PEG-mediated cell fusion of MEFs treated 48 hours previously with adeno-mitoGFP or adeno-mitoDsRed (Chen et al., 2005, J Biol Chem, 280:26185-26192). Laser confocal fluorescence was excited with 561 nm (MitoTracker Green, GFP, FITC), 637 nm (TMRE, LysoTracker Red, mcherry-Parkin, MitoTracker Orange) or 408 nm (Blue Hoechst) laser diodes. Image analysis—Mitochondrial aspect ratio was calculated using automated edge detection and Image J software (Song et al., 2015, Cell Metab, 21:273-285). Mitochondrial depolarization was calculated as % of green mitochondria visualized on MitoTracker Green and TMRE merged images, expressed as green/(green+yellow mitochondria)×100. Parkin aggregation was calculated as % of cells with mitochondrial clumping of mcherry-Parkin (Song et al., 2015, Cell Metab, 21:273-285). Lysosomal engulfment of mitochondria was identified by colocalization of LysoTracker Red and MitoTracker Green (Song et al., 2015, Cell Metab, 21:273-285).
First, an adenovirus which recombinantly expressed the hMfn2 HR1 binding fragment (adeno HR1) was introduced into MEFs. It was reasoned that competition of the intra-molecular HR1-HR2 interaction by free HR1 fragment would increase mitochondrial fusion. […]

WT MEFs and Mfn2 KO MEFs = assay: Parkin recruitment and mitophagy induced by mitochondrial depolarization, adenoviral expression; format: cell-based, murine; conditions: data not shown
Procedure: as §1
Also studied were the effects of the adenoviral expression of WT Mfn2, HR1 peptide, adeno367-384 and its glycine variant and adeno398-418 and its glycine variant on Parkin recruitment and mitophagy induced by mitochondrial depolarization which are also impaced by the Mfn1 and Mfn2 proteins (Chen et al., 2013, Science, 340:471-475; Gong G. et al., 2015, Science, 350:aad2459). These studies were performed using WT MEFs and Mfn2 KO MEFs.

WT MEFs = format: cell-based, murine; conditions: WT MEFs; varying concentrations / time course
Procedure: as §1
TAT47-57 is a well-characterized “carrier” peptide able to promote active cellular peptide uptake. Specifically, a linear peptide was constructed in which the hMfn2 modulatory peptide was linked by a peptide bond at its C-terminus to a Gly-Gly dipeptide linker whose C-terminus was linked by a peptide bond to the TAT47-57 peptide having the sequence YGRKKRRQRRR (SEQ ID NO:25). The resultant linear fusion-promoting peptide conjugate comprises the sequence […] (SEQ ID NO:23). The fusion-inhibiting linear peptide has the sequence […] (SEQ ID NO:24). Except for dose-response studies, stock concentrations of TAT-minipeptides in sterile water were applied to cultured MEFs at a dilution factor of 1:2000 to achieve final concentrations of 1 or 5 μM.
The functional consequences of the Mfn2 HR1-derived peptides were defined after synthesizing them as C-terminal TAT47-57 conjugates to promote active cellular uptake. Mitochondrial fusion can be detected by mixing of organellar contents (Chen et al., 2005, J Biol Chem, 280:26185-26192). […] (FIG. 8A, scale bar is 20 microns). Mitochondrial aspect ratio changed in parallel with mitochondrial mixing (FIG. 8B).
Experiments were performed with these shortened variants fused to a carrier peptide via a linker according to the methods described in Example 5 above. Wildtype MEFs were treated with varying concentrations of peptide fusion constructs described in Table 4 and mitochondrial aspect ratios determined. A dose response curve for TetherX-N and -C variants are shown in FIG. 17A (squares are data for TetherX-N and circles are for TetherX-C). The dose response curve for GoFuse-N and -C variants are shown in FIG. 17B (squares are for GoFuse-N and circles are for GoFuse-C).

mitochondrial fusion = assay: Alanine scanning of TetherX-1 and Go-Fuse peptides, effect on mitochondrial fusion in cells; format: cell-based; conditions: variants linked to TAT carrier via GG linker; compared with SEQ ID NO:48 or 50
Procedure: Alanine scanning mutagenesis experiments were performed in order to identify amino acids critical for the function of the TetherX-1 and Go-Fuse peptides. Alanine was individually substituted for each amino acid in the Tetherx-1 and Go-Fuse peptides and the modified peptides, linked to the TAT carrier peptide via a GG linker, were administered to cells and the effect on mitochondrial fusion measured. Table 5 lists Go-Fuse variants which maintained fusion-promoting activity (activity similar to that of SEQ ID NO:48 or 50) while Table 6 lists variant Go-Fuse peptides in which substitutions had no effect (substitution of a non-critical amino acid).

Substance	mitochondrial aspect ratio (length/width; an index of mitochondrial fusion) [1]	Parkin recruitment and mitophagy induced by mitochondrial depolarization (WT MEFs and Mfn2 KO MEFs)	mitochondrial aspect ratio (effect of TAT fusion construct) (WT MEFs)	also measured
FQNFERRFEECISQSAVKTKFEQHTVRAKQIAEAVRLIMDSLHMAAREQQVYCEEMREERQDRLKFIDKQLELLAQDYKLRIKQ [adeno-HR1]	increased mitochondrial aspect ratio	No significant effects		mitochondrial aspect ratio (elongation/shortening) compared with adeno-HR1 or Mfn deletion [1]: altered mitochondrial aspect ratio
GELLAQDYKLRGGYGRKKRRQRRR [TetherX-C]			provoked mitochondrial fragmentation	
GIMD(p)SLHMAARGGYGRKKRRQRRR (GIMD[pS]LHMAARGGYGRKKRRQRRR) [SEQ ID NO:54]				fusion-promoting activity (Mfn agonist activity) of Go-Fuse variants (mitochondrial fusion): statistically active
GIMDSLHMAARGGYGRKKRRQRRR [GoFuse-C]			induced mitochondrial elongation	
QDRLKFIDKQGELLAQDYKLR [adeno398-418Gly, Mfn2 HR1 minipeptide, expressed in cells from adenoviral vector]	potently suppressed fusion	did not adversely impact		mitochondrial polarization status [1]: did not adversely impact mitochondrial polarization status
QDRLKFIDKQGGYGRKKRRQRRR [TetherX-N, N-terminal fragment of TetherX-1 fused to TAT carrier, as tested]			exhibited little activity	
QDRLKFIDKQLELLAQDYKLR (listed as Homo sapiens) [adeno398-418]		No significant effects		
QIAEAVRGGYGRKKRRQRRRR [GoFuse-N, N-terminal fragment of GoFuse-1 fused to TAT carrier, as tested]			lacked fusion-promoting activity	
QIAEAVRGIMDSLHMAAR [adeno367-384Gly, Mfn2 HR1 minipeptide, expressed in cells from adenoviral vector]	promoted fusion	did not adversely impact		mitochondrial polarization status [1]: did not adversely impact mitochondrial polarization status; mitochondrial aspect ratio (elongation/shortening) compared with adeno-HR1 or Mfn deletion [1]: comparable to that produced by adeno-HR1
QIAEAVRLIMDSLHMAAR (listed as Homo sapiens) [adeno367-384]		No significant effects		
RQVSTAMAEEIRRLSVLVDDY (listed as Homo sapiens) [adeno428-448, non-HR1 control peptide]	did not affect mitochondrial fusion			
